# Results as given in patent US20170157012A1, “A Use of Isosorbide Monooleate” (BASF SE, priority 2014, published 2017).
# Columns and labels:
# [1] = In-vitro deposition on skin substitute after rinse-off (GC of extract); settings: for In-vitro deposition of Isosorbide monooleate on the skin substitute per area: after rinse with water
# Procedure: (§1) For measuring the deposition of isosorbide monooleate on a substrate a formulation containing isosorbide monooleate was applied to this substrate. Then, the treated area was rinsed with a defined amount of water and extracted with an organic solvent in order to determine the amount of isosorbide monooleate that remained on the surface after the rinse cycle. The extract was analyzed by gas chromatography (GC) and the amount of isosorbide monooleate deposited on the surface was calculated. The measurements were carried out as described in the experimental section of WO 2013/007473.
# (§2) As substrate the human skin (forearm) of probands (in-vivo deposition) as well as a skin substitute (collagen layer) (in-vitro deposition) was used. The rinse-cycle (dilution with water) imitated the process of having a shower.
# (§3) The following formulations were used for the deposition measurements (in-vitro as well as in-vivo).
# [2] = In-vivo deposition on human skin after rinse-off (GC of extract)
# Procedure: as §1, §2, §3
substance,measurement,setting,value
isosorbide monooleate,In-vitro deposition of Isosorbide monooleate on the skin substitute per area,[1]; 0.5 % by weight isosorbide monooleate in the formulation,3.7 μg/cm^2
same,In-vitro deposition of Isosorbide monooleate on the skin substitute per area,[1]; 1 % by weight isosorbide monooleate in the formulation,7.3 μg/cm^2
same,In-vitro deposition of Isosorbide monooleate on the skin substitute per area,[1]; 1.5 % by weight isosorbide monooleate in the formulation,8.6 μg/cm^2
same,In-vitro deposition of Isosorbide monooleate on the skin substitute per area,[1]; 2 % by weight isosorbide monooleate in the formulation,15.8 μg/cm^2
same,Concentration dependency of deposition on the skin/skin substitute,[1]; formulations with 0.5 to 2 % by weight isosorbide monooleate,The higher the amount of isosorbide monooleate in the formulation the higher the deposition rate
same,In-vivo Deposition of isosorbide monooleate on the skin per area,"[2]; 1 % by weight isosorbide monooleate in the formulation, human forearm skin, after rinse-off",0.7 μg/cm^2
same,Remaining on the skin after rinse-off (in words),[2]; formulation with 1% by weight isosorbide monooleate,remained in small amounts on the skin after rinse-off
